Laboratory results: patent US4021546A (priority 1976, dated 1977)
In brackets after ≈: the same amount, converted by molar mass.

How the values were obtained:
[1] = recent reports; cited from earlier work
animal enzymes = settings: more recent studies; cited from earlier work
[2] = in vivo; cited from earlier work
[3] = compared to digitoxin; cited from earlier work
[4] = from the gastrointestinal tract, cited from earlier work
physchem = settings: 0.01 n hcl
[5] = 25° C.; cited from earlier work

Row | SMILES | demethylation in man [1] | resistance to degradation by animal enzymes (animal enzymes) | closeness of therapeutic and toxic dose [2] | duration of action [3] | onset of action [3] | completeness of absorption vs digitoxin ([4]; compared to digitoxin) | extent of absorption [4] | solubility (physchem) [µg/mL] | solubility per ml of 0.1 N HCl [5]
1 | CO[C@H]1[C@@H](O)C[C@H](O[C@H]2[C@@H](O)C[C@H](O[C@H]3[C@@H](O)C[C@H](O[C@H]4CC[C@@]5(C)[C@H](CC[C@@H]6[C@@H]5C[C@@H](O)[C@]5(C)[C@@H](C7=CC(=O)OC7)CC[C@]65O)C4)O[C@@H]3C)O[C@@H]2C)O[C@@H]1C [4'"-methyldigoxin] | actually demethylated in man | very resistant to degradation by animal enzymes |  |  |  |  |  |  | 
2 | C[C@H]1O[C@@H](O[C@H]2[C@@H](O)C[C@H](O[C@H]3[C@@H](O)C[C@H](O[C@H]4CC[C@@]5(C)[C@H](CC[C@@H]6[C@@H]5C[C@@H](O)[C@]5(C)[C@@H](C7=CC(=O)OC7)CC[C@]65O)C4)O[C@@H]3C)O[C@@H]2C)C[C@H](O)[C@@H]1O [digoxin] |  |  | extremely close | shorter | quite more rapid | not as completely absorbed | 50% to 70 | ~78 (≈ 99.9 µM) | about 78 mcg/ml
